Measured values taken from paper PMC11542186, “Pin1 WW Domain Ligand Library Synthesized with an Easy Solid-Phase Phosphorylating Reagent” (Biochemistry, 2024).

What follows are molecules tested against T1, Pin1 WW domain (Pin1–HRP) (Homo sapiens, UniProt Q13526) (assay: ELEBA primary screening assay of the library). Details: separate plate of groups A and B (L2 control 85.0443); crude library members; DMSO = 100%; mean of N = 2.
T1 construct: purchased R&D Systems
Format: binding
Experimental: The library was screened by the ELEBA we reported previously.[44] The crude products resulting from diethyl ether precipitation were used for the primary and secondary ELEBA without additional purification. The concentrations of the crude products were estimated based on quantitative yields; actual concentrations were thus lower, depending on yield and purity. The library products were dissolved in DMSO as stock solutions for assays. […] Recombinant human Pin1 conjugated to horseradish peroxidase (Pin1–HRP) was used in the binding assays.[44] Fmoc-VPRpTPVGGGK-NH2 L2 was used as the positive control and DMSO was used as the negative control on each plate. The percent of Pin1–HRP bound to the plate was calculated by normalizing the binding with DMSO to be 100%. In the primary assays (Figure S1), 14 of the best library members were identified: 1{2,d}, 1{18,f}, 1{20,f}, 1{10, l}, 1{13, l}, 1{18, l}, 1{20, l}, 1{10, n}, 1{18, n}, 1{19, n}, 1{2, n}, 1{20, n}, 1{14, o}, 1{3, o}. In the secondary assay, these ligands were measured again at 270 μM, and three hits, 1{2, d}, 1{18, l} and 1{2, n}, were chosen for further analysis (Figure 3).
The Pin1 WW domain ligand, Fmoc–VPRpTPVGGGK–NH2, (100 μL/well, 245 μM stock solution) was covalently attached to a 96-well plate through the ε-amino group of the Lys side chain at pH 11.0, as published.[44] Ligands were dissolved in DMSO at stock concentrations of ca. 50 mM by weight. Competitive binding with plate-linked Fmoc–VPRpTPVGGGK–NH2L1 of pSer–Pro dipeptides was measured at ca. 600 μM for primary screening. In the primary assays, all library members were screened with the crude products. 1{1-21, d} were measured as mixtures of cis- and trans-isomers. Library members synthesized from racemic reagents, such as 1{1-21, c}, 1{1-21, l}, 1{1-21, q}, 1{3, a-q} and 1{8, a-q} were measured as diastereomeric mixtures. The library members were dissolved in DMSO as stock solutions with a concentration of about 37 mM based on estimated yields. The DMSO stock solution of each compound (4 μL) was added into a solution of recombinant Pin1–HRP (R&D Systems) in a PBS buffer with 2% BSA (pH = 7.3). DMSO (4 μL) was used as a negative control. The final volume of the solution was 250 μL, the final concentration of Pin1–HRP was 200 pM, and the estimated final compound concentration was 590 μM. The resulting solution was preincubated for 30 min at ambient temperature, and was added into two wells (100 μL each, for assay in duplicate) of the ligand-linked plate. The solutions were incubated for another 1 h. The solutions were removed by inverting and shaking the plate, and the plate was washed with buffer ([…], and 0.05% Tween 20 in PBS at pH 7.3) three times. A 1:1 solution of hydrogen peroxide and 3,3,5,5′-tetramethylbenzidine (100 μL) was added into each plate well, and incubated in the dark for 20 min. A 2N H2SO4 solution (50 μL) was added to each well to quench the reaction, and the absorbance of was determined at 450 nm. The percentage of Pin1–HRP bound to the plate (% binding) was calculated by eq 1. To calculate the absorbance of a plate well in eq 1, the blank ligand-linked plate was predetermined at the same wavelength, and the absorbance of the blank well was subtracted from the absorbance of the same well containing the final solution. [drawing 2] 1 […]
The Fmoc-Ser(2- […]
cyanoethylphosphate)-OH product was cleaved from the resin with TFA. 1H NMR indicated the presence of the Fmoc group, implying that the substrate was successfully attached to the resin (data not shown). To develop the coupling methods, 2-(2-naphthyl)ethylamine and propionic acid were reacted with the pSer–Pro resin. The resulting propanoyl-pSer–Pro–(2-(2-naphthyl)ethyl)-amide (1H NMR below) was excluded from the library assays.
Figure S1 (following pages). Ligands (group A – O) were screening using ELEBA at ca. 266 µM.
Fmoc-VPRpTPVGGGK-NH2 L2 was used as positive control at 76-87 µM from stock solutions […]
of 4.3-4.8 mM. […]

T1 sequence (Q13526 whole entry, the tested form may be a part): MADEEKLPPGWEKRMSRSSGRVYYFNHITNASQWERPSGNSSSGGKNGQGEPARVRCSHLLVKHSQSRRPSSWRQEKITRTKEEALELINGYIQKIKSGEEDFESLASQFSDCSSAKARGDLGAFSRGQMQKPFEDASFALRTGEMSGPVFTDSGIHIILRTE

Compound | % of Pin1-HRP bound to plate-linked ligand
O=C(C=Cc1c[nH]cn1)NC(COP(=O)(O)O)C(=O)N1CCCC1C(=O)NCCc1ccc2ccccc2c1 (centres unmarked) [1{21,b}] | 77.3223%
CC(=O)N[C@@H](COP(=O)(O)O)C(=O)N1CCC[C@H]1C(=O)N(C)CCc1ccccn1 [1{5,a}] | 108.292%
O=C(C=Cc1c[nH]cn1)NC(COP(=O)(O)O)C(=O)N1CCCC1C(=O)N1CCCC1 (centres unmarked) [1{1,b}] | 117.035%
CC(=O)NC(COP(=O)(O)O)C(=O)N1CCCC1C(=O)NCCc1c[nH]cn1 (centres unmarked) [1{9,a}] | 109.367%
O=C(C=Cc1c[nH]cn1)NC(COP(=O)(O)O)C(=O)N1CCCC1C(=O)NCCc1ccc(O)cc1 (centres unmarked) [1{4,b}] | 124.444%
CC(=O)N[C@@H](COP(=O)(O)O)C(=O)N1CCC[C@H]1C(=O)NCCCCCCN [1{11,a}] | 74.9059%
COC(=O)C=C(C)NC(=O)[C@@H]1CCCN1C(=O)[C@H](COP(=O)(O)O)NC(C)=O [1{6,a}] | 116.564%
O=C(/C=C/c1c[nH]cn1)N[C@@H](COP(=O)(O)O)C(=O)N1CCC[C@H]1C(=O)N1CCC(N2CCCCC2)CC1 [1{13,b}] | 96.4764%
CC(=O)N[C@@H](COP(=O)(O)O)C(=O)N1CCC[C@H]1C(=O)N1CCN(c2ncccn2)CC1 [1{10,a}] | 102.123%
CC(=O)N[C@@H](COP(=O)(O)O)C(=O)N1CCC[C@H]1C(=O)Nc1ccc2[nH]ncc2c1 [1{2,a}] | 115.042%
O=C(/C=C/c1c[nH]cn1)N[C@@H](COP(=O)(O)O)C(=O)N1CCC[C@H]1C(=O)NNC(=O)c1ccco1 [1{18,b}] | 87.6813%
O=C(C=Cc1c[nH]cn1)NC(COP(=O)(O)O)C(=O)N1CCCC1C(=O)NCCc1c[nH]cn1 (centres unmarked) [1{9,b}] | 117.354%
N=C(N)NCCCCNC(=O)[C@@H]1CCCN1C(=O)[C@H](COP(=O)(O)O)NC(=O)/C=C/c1c[nH]cn1 [1{16,b}] | 94.5777%
CC(=O)NC(COP(=O)(O)O)C(=O)N1CCCC1C(=O)NCCc1ccc(O)cc1 (centres unmarked) [1{4,a}] | 120.879%
CC(=O)NC(COP(=O)(O)O)C(=O)N1CCCC1C(=O)N1CCC(N2CCCCC2)CC1 (centres unmarked) [1{13,a}] | 109.315%
CC(=O)NC(COP(=O)(O)O)C(=O)N1CCCC1C(=O)NCCc1ccc2ccccc2c1 (centres unmarked) [1{21,a}] | 113.792%
COC(=O)C=C(C)NC(=O)C1CCCN1C(=O)C(COP(=O)(O)O)NC(=O)C=Cc1c[nH]cn1 (centres unmarked) [1{6,b}] | 111.464%
